Each structure is given as a SMILES string.

What all share (assay): Eurofins kinase panel
Holding throughout (type): biochemical
Settings in all cases: read-out: Inhibition rate (%)

One assay has as its target T1, PKG1β(h) (Homo sapiens, UniProt Q13976).
T1 construct: purchased Eurofins (KinaseProfiler)
T1 sequence (Q13976 1-686 isoform Q13976-2): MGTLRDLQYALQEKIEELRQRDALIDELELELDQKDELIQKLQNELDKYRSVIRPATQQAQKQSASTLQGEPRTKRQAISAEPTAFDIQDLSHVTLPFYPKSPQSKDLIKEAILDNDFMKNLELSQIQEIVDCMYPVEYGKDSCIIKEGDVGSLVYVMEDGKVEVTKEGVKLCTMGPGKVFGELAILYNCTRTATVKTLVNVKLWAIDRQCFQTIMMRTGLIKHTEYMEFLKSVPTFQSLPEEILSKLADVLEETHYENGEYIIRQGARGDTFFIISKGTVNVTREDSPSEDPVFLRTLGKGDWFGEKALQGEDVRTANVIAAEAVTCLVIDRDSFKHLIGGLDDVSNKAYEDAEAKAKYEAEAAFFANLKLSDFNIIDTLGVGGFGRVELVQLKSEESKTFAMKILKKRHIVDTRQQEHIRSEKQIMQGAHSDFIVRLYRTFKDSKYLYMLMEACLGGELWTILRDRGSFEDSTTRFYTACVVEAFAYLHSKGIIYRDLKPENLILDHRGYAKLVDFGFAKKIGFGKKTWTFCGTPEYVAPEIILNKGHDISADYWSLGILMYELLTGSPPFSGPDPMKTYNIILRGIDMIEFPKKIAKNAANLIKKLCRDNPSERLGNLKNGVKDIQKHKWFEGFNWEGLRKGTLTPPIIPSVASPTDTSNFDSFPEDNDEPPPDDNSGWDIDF

A further assay deals with T2, ErbB2(h) (Homo sapiens, UniProt P04626).
T2 construct: purchased Eurofins (KinaseProfiler)

Another assay deals with T3, PIP4K2α(h) (Homo sapiens, UniProt P48426).
T3 construct: purchased Eurofins (KinaseProfiler)
T3 sequence (P48426 1-406): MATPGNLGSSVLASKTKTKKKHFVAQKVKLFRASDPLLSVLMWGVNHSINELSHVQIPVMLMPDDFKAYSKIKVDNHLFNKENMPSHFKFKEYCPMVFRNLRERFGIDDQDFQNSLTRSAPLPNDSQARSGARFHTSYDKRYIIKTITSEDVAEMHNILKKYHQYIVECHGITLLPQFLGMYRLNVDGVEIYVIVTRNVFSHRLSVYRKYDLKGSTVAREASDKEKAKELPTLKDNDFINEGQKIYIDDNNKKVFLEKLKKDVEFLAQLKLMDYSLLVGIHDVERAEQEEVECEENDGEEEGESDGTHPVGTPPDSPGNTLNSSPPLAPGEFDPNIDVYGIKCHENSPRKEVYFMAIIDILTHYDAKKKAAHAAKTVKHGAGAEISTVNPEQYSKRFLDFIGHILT

Another assay addresses T4, EphB2(h) (Homo sapiens, UniProt P29323).
T4 construct: purchased Eurofins (KinaseProfiler)
T4 sequence (P29323 19-1055): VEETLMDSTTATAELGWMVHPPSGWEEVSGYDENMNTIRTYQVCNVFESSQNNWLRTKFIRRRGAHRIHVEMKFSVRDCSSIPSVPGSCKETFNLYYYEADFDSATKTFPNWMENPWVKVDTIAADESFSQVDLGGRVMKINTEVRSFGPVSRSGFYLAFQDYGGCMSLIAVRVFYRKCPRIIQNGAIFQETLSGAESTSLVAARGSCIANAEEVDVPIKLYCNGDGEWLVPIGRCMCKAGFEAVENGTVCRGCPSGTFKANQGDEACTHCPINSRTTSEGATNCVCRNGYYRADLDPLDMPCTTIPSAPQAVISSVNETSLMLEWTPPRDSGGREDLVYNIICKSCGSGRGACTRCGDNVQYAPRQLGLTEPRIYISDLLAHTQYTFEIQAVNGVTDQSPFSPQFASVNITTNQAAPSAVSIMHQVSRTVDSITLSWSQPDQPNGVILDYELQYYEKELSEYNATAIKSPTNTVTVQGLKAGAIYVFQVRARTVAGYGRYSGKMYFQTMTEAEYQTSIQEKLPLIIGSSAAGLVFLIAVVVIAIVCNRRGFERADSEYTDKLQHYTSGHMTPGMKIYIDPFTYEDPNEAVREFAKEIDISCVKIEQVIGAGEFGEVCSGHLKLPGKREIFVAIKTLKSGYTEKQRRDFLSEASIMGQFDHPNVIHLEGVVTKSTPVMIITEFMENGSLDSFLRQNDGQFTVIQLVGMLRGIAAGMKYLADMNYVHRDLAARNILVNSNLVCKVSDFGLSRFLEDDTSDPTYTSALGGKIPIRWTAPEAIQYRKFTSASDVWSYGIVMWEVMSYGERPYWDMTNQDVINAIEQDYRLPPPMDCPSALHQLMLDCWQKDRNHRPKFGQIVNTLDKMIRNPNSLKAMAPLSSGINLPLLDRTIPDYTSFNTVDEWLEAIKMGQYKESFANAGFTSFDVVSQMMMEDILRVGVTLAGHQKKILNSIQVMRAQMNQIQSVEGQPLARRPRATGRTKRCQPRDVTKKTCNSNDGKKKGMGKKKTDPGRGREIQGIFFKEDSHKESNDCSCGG

The next assay has as its target T5, CaMKK1(h) (Homo sapiens, UniProt Q8N5S9).
T5 construct: purchased Eurofins (KinaseProfiler)

A further assay has as its target T6, PRK2(h) (Homo sapiens, UniProt Q16513).
T6 construct: purchased Eurofins (KinaseProfiler)

T5 sequence (Q8N5S9 whole entry): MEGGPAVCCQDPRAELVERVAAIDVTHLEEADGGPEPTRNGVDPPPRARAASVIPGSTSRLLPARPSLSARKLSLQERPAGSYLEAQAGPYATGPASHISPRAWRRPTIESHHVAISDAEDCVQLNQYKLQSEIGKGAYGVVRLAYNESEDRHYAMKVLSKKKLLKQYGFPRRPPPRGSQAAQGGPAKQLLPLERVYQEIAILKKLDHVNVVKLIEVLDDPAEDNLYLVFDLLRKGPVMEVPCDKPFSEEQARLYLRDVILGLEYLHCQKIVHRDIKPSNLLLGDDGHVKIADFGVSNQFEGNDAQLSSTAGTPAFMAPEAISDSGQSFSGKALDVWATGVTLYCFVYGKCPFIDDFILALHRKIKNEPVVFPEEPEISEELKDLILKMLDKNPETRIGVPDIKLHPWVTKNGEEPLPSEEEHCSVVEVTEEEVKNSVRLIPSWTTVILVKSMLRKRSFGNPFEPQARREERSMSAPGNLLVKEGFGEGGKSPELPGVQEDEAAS
T2 sequence (P04626 23-1255): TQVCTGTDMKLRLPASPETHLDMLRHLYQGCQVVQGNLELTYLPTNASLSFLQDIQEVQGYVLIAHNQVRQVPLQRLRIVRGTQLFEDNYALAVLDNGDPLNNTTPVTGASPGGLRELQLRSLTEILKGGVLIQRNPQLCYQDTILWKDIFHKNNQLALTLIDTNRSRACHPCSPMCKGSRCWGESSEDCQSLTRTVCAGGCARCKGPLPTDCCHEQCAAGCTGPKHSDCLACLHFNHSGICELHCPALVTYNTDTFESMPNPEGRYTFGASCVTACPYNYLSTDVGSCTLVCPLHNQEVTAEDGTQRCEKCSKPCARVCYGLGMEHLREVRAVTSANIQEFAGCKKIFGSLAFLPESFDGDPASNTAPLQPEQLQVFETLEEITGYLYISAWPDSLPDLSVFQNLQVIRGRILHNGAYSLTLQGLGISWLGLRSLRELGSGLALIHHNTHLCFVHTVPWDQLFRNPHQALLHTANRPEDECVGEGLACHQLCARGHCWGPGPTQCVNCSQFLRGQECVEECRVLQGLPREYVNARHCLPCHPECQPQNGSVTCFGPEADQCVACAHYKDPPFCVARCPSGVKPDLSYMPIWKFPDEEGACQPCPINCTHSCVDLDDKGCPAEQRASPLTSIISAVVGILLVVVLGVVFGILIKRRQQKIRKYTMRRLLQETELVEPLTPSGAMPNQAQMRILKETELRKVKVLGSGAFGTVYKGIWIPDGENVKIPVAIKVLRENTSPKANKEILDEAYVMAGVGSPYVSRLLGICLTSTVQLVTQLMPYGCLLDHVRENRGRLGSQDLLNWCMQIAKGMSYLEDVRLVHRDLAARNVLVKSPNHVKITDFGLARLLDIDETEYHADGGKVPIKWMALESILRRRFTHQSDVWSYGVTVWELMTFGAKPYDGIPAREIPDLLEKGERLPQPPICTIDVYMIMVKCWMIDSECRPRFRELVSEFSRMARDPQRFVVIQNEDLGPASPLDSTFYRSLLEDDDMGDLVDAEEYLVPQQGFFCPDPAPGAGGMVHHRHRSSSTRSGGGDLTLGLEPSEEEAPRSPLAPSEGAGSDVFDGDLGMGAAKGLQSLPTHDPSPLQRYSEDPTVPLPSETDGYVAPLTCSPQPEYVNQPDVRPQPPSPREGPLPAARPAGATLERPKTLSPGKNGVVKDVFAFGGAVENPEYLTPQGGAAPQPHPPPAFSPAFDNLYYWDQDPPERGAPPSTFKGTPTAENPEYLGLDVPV
T6 sequence (Q16513 whole entry): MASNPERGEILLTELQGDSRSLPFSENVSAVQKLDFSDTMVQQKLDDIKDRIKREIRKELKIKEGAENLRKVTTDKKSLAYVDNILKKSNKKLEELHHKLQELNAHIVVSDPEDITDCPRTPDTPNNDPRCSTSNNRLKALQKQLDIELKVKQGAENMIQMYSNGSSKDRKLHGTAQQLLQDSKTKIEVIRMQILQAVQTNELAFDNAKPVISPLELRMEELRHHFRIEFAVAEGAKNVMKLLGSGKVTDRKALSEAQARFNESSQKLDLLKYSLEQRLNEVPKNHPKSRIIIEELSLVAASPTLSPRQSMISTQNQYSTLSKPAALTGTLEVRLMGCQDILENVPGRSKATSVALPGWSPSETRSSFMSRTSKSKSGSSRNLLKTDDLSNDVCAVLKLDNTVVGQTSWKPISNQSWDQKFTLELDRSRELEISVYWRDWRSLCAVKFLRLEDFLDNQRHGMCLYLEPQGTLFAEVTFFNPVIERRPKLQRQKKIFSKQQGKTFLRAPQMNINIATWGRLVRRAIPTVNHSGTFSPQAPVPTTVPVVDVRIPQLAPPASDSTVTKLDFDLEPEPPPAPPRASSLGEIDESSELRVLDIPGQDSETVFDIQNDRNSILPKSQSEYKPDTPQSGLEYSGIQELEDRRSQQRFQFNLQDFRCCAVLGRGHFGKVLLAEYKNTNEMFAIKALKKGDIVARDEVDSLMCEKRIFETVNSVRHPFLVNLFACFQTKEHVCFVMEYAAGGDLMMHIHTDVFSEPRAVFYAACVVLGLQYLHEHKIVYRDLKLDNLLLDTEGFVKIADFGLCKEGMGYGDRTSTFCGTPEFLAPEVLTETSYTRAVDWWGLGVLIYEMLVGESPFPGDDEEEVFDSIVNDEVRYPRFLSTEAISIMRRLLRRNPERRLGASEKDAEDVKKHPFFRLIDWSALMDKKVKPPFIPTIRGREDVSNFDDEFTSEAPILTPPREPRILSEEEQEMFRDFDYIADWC

For `COc1cc(OC)c(Cl)c(-c2ccc3c(NC(=O)c4ccc(N5CCNC(C)(C)C5)cc4)n[nH]c3n2)c1Cl` [3D185], the inhibition – broadly, the relative decrease from the control value, in per cent – at 0.01 µM on PKG1β(h) (10 nM) was 12%; at ErbB2(h) (10 nM) it was -7%; at PIP4K2α(h) (10 nM), 1%; on EphB2(h) (10 nM) it was 12%; on CaMKK1(h) (10 nM), -1%; at PRK2(h) (10 nM) it was 12%. Also, the inhibition at 0.1 µM was 1% on PKG1β(h) (100 nM); -11% at ErbB2(h) (100 nM); -2% on PIP4K2α(h) (100 nM); 6% at EphB2(h) (100 nM); 5% on CaMKK1(h) (100 nM); 4% at PRK2(h) (100 nM). Moreover, the inhibition at 1 µM on PKG1β(h) (1000 nM) is 4%; at ErbB2(h) (1000 nM), -11%; at PIP4K2α(h) (1000 nM) it was 4%; on EphB2(h) (1000 nM), 15%; on CaMKK1(h) (1000 nM), 35%; at PRK2(h) (1000 nM), 3%.

These data come from article PMC6704710, “Preclinical evaluation of 3D185, a novel potent inhibitor of FGFR1/2/3 and CSF-1R, in FGFR-dependent and macrophage-dominant cancer models” (Journal of Experimental & Clinical Cancer Research : CR, 2019).
